Measured values published in patent US7935848B2, “Butone derivatives useful as cooling agents” (Givaudan S.A., priority 2007, dated 2011).

Columns and labels:
Assay type in all cases: in vivo, human
[1] = Cooling intensity: panelists taste aqueous solutions, compared with menthol at 2 ppm; conditions: tasted by small group of panelists
[2] = Application in toothpaste: cooling perception after brushing; conditions: for Cooling sensation felt by the panelist in all areas of the mouth: opaque toothgel with 0.50 g peppermint oil and 0.30 g saccharin, teeth brushed, mouth rinsed; for Cooling sensation felt by the panelist in all areas of the mouth / Duration of cooling perception: test compound 0.05 g per 100 g; for Cooling perception rating versus control: toothgel with 0.05 g compound plus 0.50 g peppermint oil versus peppermint oil control; for Duration of cooling perception: toothgel, 0.50 g peppermint oil
Procedure: The chemicals are mixed in the toothgel, a piece of toothgel is put on a toothbrush and a panelist's teeth are brushed. The mouth is rinsed with water and the water is spat out. […] The cooling perception lasts for 40 minutes.
The chemicals are mixed in the toothgel, a piece of toothgel is put on a toothbrush and a panelist's teeth are brushed. The mouth is rinsed with water and the water is spat out.

[3] = Application in chewing gum: cooling perception after chewing; conditions: for Cooling perception rated higher than the control: chewing gum with 0.05 g compound plus 0.50 g peppermint oil versus peppermint oil control; for Cooling sensation felt by the panelist in all areas of the mouth: chewing gum with 0.50 g peppermint oil; for Cooling sensation felt by the panelist in all areas of the mouth / Duration of cooling perception: test compound 0.05 g, 2 g piece chewed 20 min; for Duration of cooling perception: chewing gum, 0.50 g peppermint oil
Procedure: The gum base and half of the sorbitol were mixed, maltitol syrup was added and the mixed with the gum mass. The rest of powder (rest of sorbitol, mannitol, potassium acesulfame, aspartame) were added and mixed for about 1 minute, when glycerine was added and the gum mass was mix for about 5 minutes, to form the blank chewing gum mass. Peppermint oil was worked into the mass and a piece of the resulting gum (2 g) is chewed by the panelist for 20 min and spat out. […] The cooling perception lasts for 50 minutes.
The chemical and peppermint oil was worked into the blank chewing gum mass from Example 12 a) and a piece of the resulting gum (2 g) is chewed by the panelist for 20 minutes and spat out.
The chemical and peppermint oil was worked into the blank chewing gum mass from Example 12a) and a piece of the resulting gum (2 g) is chewed by the panelist for 20 minutes and spat out.

## CCCC(=O)[C@@H]1C[C@H](C)CC[C@H]1C(C)C [Example 1, 1-((1R,2S,5R)-2-isopropyl-5-methylcyclohexyl)butan-1-one]
[1]
  Concentration with cooling intensity similar to or slightly higher than a solution of menthol at 2 ppm: 2.0 ppm
[2]
  Cooling sensation felt by the panelist in all areas of the mouth: intense cooling sensation
  Cooling perception rating versus control: higher then the control
  Duration of cooling perception: 72 min
[3]
  Cooling perception rated higher than the control: 49%
  Cooling sensation felt by the panelist in all areas of the mouth: cooling sensation
  Duration of cooling perception: over 60 minutes

## CC(C)[C@@H]1CC[C@@H](C)C[C@H]1C(=O)CCCc1ccccc1 [Example 2, 1-((1R,2S,5R)-2-isopropyl-5-methylcyclohexyl)-4-phenylbutan-1-one]
[1]
  Concentration with cooling intensity similar to or slightly higher than a solution of menthol at 2 ppm: 2.0 ppm
[2]
  Cooling sensation felt by the panelist in all areas of the mouth: intense cooling sensation
  Cooling perception rating versus control: higher then the control
  Duration of cooling perception: 70 min
[3]
  Cooling perception rated higher than the control: 49%
  Cooling sensation felt by the panelist in all areas of the mouth: cooling sensation
  Duration of cooling perception: over 60 minutes

## CC(C)[C@@H]1CC[C@@H](C)C[C@H]1C(=O)CCCc1ccccn1 [Example 3, 1-((1R,2S,5R)-2-isopropyl-5-methylcyclohexyl)-4-(pyridin-2-yl)butan-1-one]
[1]
  Concentration with cooling intensity similar to or slightly higher than a solution of menthol at 2 ppm: 0.01 ppm

## CC(C)C(C)(C(=O)CCCc1ccccc1)C(C)C [Example 4, 5-isopropyl-5,6-dimethyl-1-phenylheptan-4-one]
[1]
  Concentration with cooling intensity similar to or slightly higher than a solution of menthol at 2 ppm: 3.0 ppm

## CCNC(=O)C1CC(C)CCC1C(C)C (stereo not drawn) [WS-3, N-ethyl p-menthanecarboxamide, reference compound]
[1]
  Concentration with cooling intensity similar to or slightly higher than a solution of menthol at 2 ppm: 1.5 ppm

## CC(C)[C@@H]1CC[C@@H](C)C[C@H]1O [l-Menthol, reference compound]
[1]
  Concentration with cooling intensity similar to or slightly higher than a solution of menthol at 2 ppm: 2.0 ppm
